Results as given in patent publication US20180185324A1, “NOVEL CANNABINOID COMBINATION THERAPIES FOR MULTIPLE MYELOMA (MM)” (ONE WORLD CANNABIS LTD, priority 2015, published 2018).
Read-outs that look alike come from different tables or passages of the source.

Test system: RPMI8226 multiple myeloma (MM) human cell lines
Test: Cytotoxic effect of CBD, THC and combinations on RPMI8226 cells
Type: cell-based
Settings: for IC50: Homo sapiens; for survival of MM cells (in words): concentration dependent manner, FIG. 2; for survival of RPMIS MM cells: concentration of about 20 μM and higher
Protocol: This example examines the cytotoxic effect of CBD alone, THC alone and combinations of both compounds. The cytotoxic effect of CBD, THC and their combinations in different ratios such as CBD: THC 1:1; CBD: THC 5:1 and CBD: THC 1:5 were evaluated on RPMI8226 multiple myeloma (MM) human cell lines. Reference is now made to FIG. 2 which presents a graph of RPMIS MM cell line survival (%) vs. concentration (μM).

C=C(C)[C@@H]1CCC(C)=C[C@H]1c1c(O)cc(CCCCC)cc1O [CBD, cannabidiol]
IC50 (RPMI-8226, RPMI8226 (RPMIS) MM cells, read-out: dose that caused 50% of MM cell death): 16 µM | survival of MM cells (in words): decreased the survival | survival of RPMIS MM cells: about 50%

CCCCCc1cc(O)c2c(c1)OC(C)(C)[C@@H]1CCC(C)=C[C@@H]21 [THC, Tetrahydrocannabinol]
IC50 (RPMI-8226, read-out: dose that caused 50% of MM cell death): 22 µM | survival of MM cells (in words): decreased the survival | survival of RPMIS MM cells: about 50%
